Reference: PubChem BioAssay (NCI)
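Five concentrations, 48 hours, 96-well plates. Here, GI50 denotes the concentration required for 50% inhibition of growth. TGI: concentration producing complete growth inhibition.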

What was measured:
Test in all cases: NCI anticancer screen, dose series, 48 h
[1] = tested on: UACC-257 melanoma
[2] = tested on: NCI/ADR-RES ovarian
[3] = tested on: SF-295 CNS
[4] = tested on: KM12 colon
[5] = tested on: SF-539 CNS
[6] = tested on: HOP-62 NSCLC
[7] = tested on: SW-620 colon
[8] = tested on: SNB-75 CNS
[9] = tested on: A498 renal
[10] = tested on: SK-MEL-28 melanoma
[11] = tested on: LOX IMVI melanoma
[12] = tested on: K-562 leukemia
[13] = tested on: NCI-H226 lung
[14] = tested on: MDA-MB-231 breast
[15] = tested on: MOLT-4 leukemia
[16] = tested on: HCT-116 colon
[17] = tested on: CAKI-1 renal
[18] = tested on: OVCAR-5 ovarian
[19] = tested on: HCC-2998 colon
[20] = tested on: SK-MEL-5 melanoma
[21] = tested on: HOP-92 NSCLC
[22] = tested on: 786-0 renal
[23] = tested on: MDA-MB-435
[24] = tested on: RPMI-8226 leukemia
[25] = tested on: EKVX NSCLC
[26] = tested on: SF-268 CNS
[27] = tested on: MALME-3M melanoma
[28] = tested on: SR leukemia
[29] = tested on: OVCAR-4 ovarian
[30] = tested on: RXF 393 renal
[31] = tested on: BT-549 breast
[32] = tested on: T-47D breast
[33] = tested on: OVCAR-3 ovarian
[34] = tested on: PC-3 prostate
[35] = tested on: A549 NSCLC
[36] = tested on: HS 578T breast
[37] = tested on: NCI-H522 lung
[38] = tested on: UACC-62 melanoma
[39] = tested on: U251 CNS
[40] = tested on: SK-MEL-2 melanoma
[41] = tested on: HT29 colon
[42] = tested on: SN12C renal
[43] = tested on: SNB-19 CNS
[44] = tested on: TK-10 renal
[45] = tested on: DU-145 prostate
[46] = tested on: HCT-15 colon
[47] = tested on: NCI-H460 lung
[48] = tested on: UO-31 renal
[49] = tested on: M14 melanoma
[50] = tested on: NCI-H23 lung
[51] = tested on: MCF7 breast
[52] = tested on: COLO 205 colon
[53] = tested on: IGROV1 ovarian
[54] = tested on: ACHN renal
[55] = tested on: CCRF-CEM leukemia
[56] = tested on: OVCAR-8 ovarian
[57] = tested on: SK-OV-3 ovarian
[58] = tested on: HL-60(TB) leukemia
[59] = tested on: MDA-N

## CN(C)CCOC(=O)Nc1nc2ccc(Sc3ccccc3)cc2[nH]1
[1]
  GI50: 13.4 µM
  TGI: 29.4 µM
[2]
  GI50: 2.44 µM
  TGI: 9.65 µM
[3]
  GI50: 2.96 µM
  TGI: 13.4 µM
[4]
  GI50: 3.51 µM
  TGI: 19.7 µM
[5]
  GI50: 2.27 µM
  TGI: 5.85 µM
[6]
  GI50: 3.94 µM
  TGI: 15.5 µM
[7]
  GI50: 3.69 µM
  TGI: 16.3 µM
[8]
  GI50: 1.98 µM
  TGI: 7.66 µM
[9]
  GI50: 2.62 µM
  TGI: 10.6 µM
[10]
  GI50: 9.19 µM
  TGI: 24.3 µM
[11]
  GI50: 4.26 µM
  TGI: 15.9 µM
[12]
  GI50: 0.613 µM
  TGI: 13.7 µM
[13]
  GI50: 4.61 µM
  TGI: 28.1 µM
[14]
  GI50: 3.25 µM
  TGI: 12.3 µM
[15]
  GI50: 5.32 µM
  TGI: 20.1 µM
[16]
  GI50: 3.16 µM
  TGI: 12.6 µM
[17]
  GI50: 3.16 µM
  TGI: 17.2 µM
[18]
  GI50: 4.22 µM
  TGI: 21.1 µM
[19]
  GI50: 3.31 µM
  TGI: 14.1 µM
[20]
  GI50: 3.31 µM
  TGI: 12.5 µM
[21]
  GI50: 1.33 µM
  TGI: 6.73 µM
[22]
  GI50: 3.8 µM
  TGI: 15 µM
[23]
  GI50: 0.432 µM
  TGI: 2.26 µM
[24]
  GI50: 3.72 µM
  TGI: 17.9 µM
[25]
  GI50: 5.75 µM
  TGI: 22.7 µM
[26]
  GI50: 6.41 µM
  TGI: 25.4 µM
[27]
  GI50: 4.93 µM
  TGI: 19.5 µM
[28]
  GI50: 0.921 µM
  TGI: 19.4 µM
[29]
  GI50: 6.3 µM
  TGI: > 100 µM
[30]
  GI50: 1.85 µM
  TGI: 6.6 µM
[31]
  GI50: 3.2 µM
  TGI: 13.5 µM
[32]
  GI50: 4.66 µM
  TGI: 21.4 µM
[33]
  GI50: 2.66 µM
  TGI: 9.06 µM
[34]
  GI50: 3 µM
  TGI: 22.7 µM
[35]
  GI50: 4.97 µM
  TGI: 18.3 µM
[36]
  GI50: 4 µM
  TGI: 28.8 µM
[37]
  GI50: 2.58 µM
  TGI: 10.8 µM
[38]
  GI50: 3.74 µM
  TGI: 16.7 µM
[39]
  GI50: 3.04 µM
  TGI: 12.1 µM
[40]
  GI50: 5.55 µM
  TGI: 22.2 µM
[41]
  GI50: 3.57 µM
  TGI: 10.7 µM
[42]
  GI50: 5.23 µM
  TGI: 27.5 µM
[43]
  GI50: 4.87 µM
  TGI: 19.5 µM
[44]
  GI50: 11 µM
  TGI: 25.5 µM
[45]
  GI50: 4.09 µM
  TGI: 18.8 µM
[46]
  GI50: 1.96 µM
  TGI: 16.2 µM
[47]
  GI50: 3.69 µM
  TGI: 13.7 µM
[48]
  GI50: 3.11 µM
  TGI: 15.4 µM
[49]
  GI50: 2.28 µM
  TGI: 9.29 µM
[50]
  GI50: 4.08 µM
  TGI: 19.5 µM
[51]
  GI50: 1.35 µM
  TGI: 15.2 µM
[52]
  GI50: 2.16 µM
  TGI: 5.19 µM
[53]
  GI50: 6.32 µM
  TGI: 27.6 µM
[54]
  GI50: 6.52 µM
  TGI: 19.2 µM
[55]
  GI50: 2.67 µM
  TGI: 16.3 µM
[56]
  GI50: 4.26 µM
  TGI: 26.8 µM
[57]
  GI50: 3.87 µM
  TGI: 23.7 µM
[58]
  GI50: 3.24 µM
  TGI: 8.59 µM

## COc1cccc(-c2c(-c3ccccc3)[nH]c(C)c2C(=O)ONC(=O)c2ccccc2)c1
[1]
  TGI: 26.6 µM
[2]
  TGI: 26 µM
[3]
  TGI: 7.64 µM
[4]
  TGI: 32.4 µM
[5]
  TGI: 18.4 µM
[6]
  TGI: 10 µM
[7]
  TGI: 40.5 µM
[8]
  TGI: 18.9 µM
[9]
  TGI: 28.5 µM
[10]
  TGI: 30.4 µM
[11]
  TGI: 3.91 µM
[12]
  TGI: 10.4 µM
[13]
  TGI: 30.7 µM
[14]
  TGI: 22.9 µM
[15]
  TGI: 18.2 µM
[16]
  TGI: 15 µM
[17]
  TGI: 11.3 µM
[18]
  TGI: 26.2 µM
[19]
  TGI: 27.4 µM
[20]
  TGI: 23.9 µM
[21]
  TGI: 4.65 µM
[22]
  TGI: 15.5 µM
[23]
  TGI: 13.7 µM
[24]
  TGI: 29.3 µM
[25]
  TGI: 23.8 µM
[26]
  TGI: 22 µM
[27]
  TGI: 28.4 µM
[28]
  TGI: 15.5 µM
[29]
  TGI: > 24.5 µM
[30]
  TGI: 17.1 µM
[31]
  TGI: 18.7 µM
[32]
  TGI: 23.9 µM
[33]
  TGI: 22.8 µM
[34]
  TGI: 23.9 µM
[35]
  TGI: 9.59 µM
[36]
  TGI: 24 µM
[37]
  TGI: 14.2 µM
[38]
  TGI: 26.9 µM
[39]
  TGI: 11.4 µM
[40]
  TGI: 23.6 µM
[41]
  TGI: > 45.2 µM
[42]
  TGI: 12.8 µM
[43]
  TGI: 23.8 µM
[44]
  TGI: 22.1 µM
[45]
  TGI: 11.8 µM
[46]
  TGI: 26.1 µM
[47]
  TGI: 11.4 µM
[48]
  TGI: 3.49 µM
[49]
  TGI: 20 µM
[50]
  TGI: 25.9 µM
[51]
  TGI: 24 µM
[52]
  TGI: 32.6 µM
[53]
  TGI: 3.18 µM
[54]
  TGI: 10.9 µM
[55]
  TGI: > 27.3 µM
[56]
  TGI: 19.1 µM
[57]
  TGI: 29.8 µM
[58]
  TGI: 4.37 µM

## Cn1c(=O)c(Cl)c(N=[N+]=[N-])c2ccccc21
[1]
  TGI: > 100 µM
[2]
  TGI: > 100 µM
[3]
  TGI: > 100 µM
[4]
  TGI: > 100 µM
[5]
  TGI: > 100 µM
[6]
  TGI: > 100 µM
[7]
  TGI: > 100 µM
[8]
  TGI: > 100 µM
[9]
  TGI: > 100 µM
[10]
  TGI: > 100 µM
[11]
  TGI: > 100 µM
[59]
  TGI: > 100 µM
[12]
  TGI: > 100 µM
[13]
  TGI: > 100 µM
[14]
  TGI: > 100 µM
[15]
  TGI: > 100 µM
[16]
  TGI: > 100 µM
[17]
  TGI: > 100 µM
[18]
  TGI: > 100 µM
[19]
  TGI: > 100 µM
[20]
  TGI: > 100 µM
[21]
  TGI: > 100 µM
[25]
  TGI: > 100 µM
[26]
  TGI: > 100 µM
[27]
  TGI: > 100 µM
[28]
  TGI: > 100 µM
[29]
  TGI: > 100 µM
[30]
  TGI: > 100 µM
[32]
  TGI: > 100 µM
[33]
  TGI: > 100 µM
[34]
  TGI: > 100 µM
[35]
  TGI: > 100 µM
[36]
  TGI: > 100 µM
[37]
  TGI: > 100 µM
[38]
  TGI: > 100 µM
[39]
  TGI: > 100 µM
[40]
  TGI: > 100 µM
[41]
  TGI: > 100 µM
[42]
  TGI: > 100 µM
[43]
  TGI: > 100 µM
[44]
  TGI: > 100 µM
[45]
  TGI: > 100 µM
[46]
  TGI: > 100 µM
[47]
  TGI: > 100 µM
[48]
  TGI: > 100 µM
[50]
  TGI: > 100 µM
[51]
  TGI: > 100 µM
[52]
  TGI: > 100 µM
[53]
  TGI: > 100 µM
[54]
  TGI: > 100 µM
[55]
  TGI: > 100 µM
[56]
  TGI: > 100 µM
[57]
  TGI: > 100 µM
